# In ChEMBL document CHEMBL1201862, “PubChem BioAssay data set” (2004):
#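 How tested: cells in 96-well plates exposed to compound for 48 hours at five concentrations. Abbreviation: GI50, concentration required for 50% inhibition of growth.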 Activity calls are given as the source filed them. Rule as the data show it: active = GI50 up to about 1.1 µM and inactive = higher.
# Assays:
# Experiment in all cases: growth of human tumour cells (NCI), 48 h
# SK-MEL-5 = tested on: SK-MEL-5
# SF-268 = tested on: SF-268
# UACC-62 = tested on: UACC-62
# Malme-3M = tested on: Malme-3M
# NCI-H226 = tested on: NCI-H226
# ACHN = tested on: ACHN
# HT-29 = tested on: HT-29
# RPMI-8226 = tested on: RPMI-8226
# TK-10 = tested on: TK-10
# HCT-116 = tested on: HCT-116
# EKVX = tested on: EKVX
# Hs-578T = tested on: Hs-578T
# MDA-MB-435 = tested on: MDA-MB-435
# IGROV-1 = tested on: IGROV-1
# SN12C = tested on: SN12C
# HOP-62 = tested on: HOP-62
# SNB-75 = tested on: SNB-75
# OVCAR-4 = tested on: OVCAR-4
# NCI-H460 = tested on: NCI-H460
# HCT-15 = tested on: HCT-15
Compound,GI50 (SK-MEL-5),GI50 (SF-268),GI50 (UACC-62),GI50 (Malme-3M),GI50 (NCI-H226),GI50 (ACHN),GI50 (HT-29),GI50 (RPMI-8226),GI50 (TK-10),GI50 (HCT-116),GI50 (EKVX),GI50 (Hs-578T),GI50 (MDA-MB-435),GI50 (IGROV-1),GI50 (SN12C),GI50 (HOP-62),GI50 (SNB-75),GI50 (OVCAR-4),GI50 (NCI-H460),GI50 (HCT-15) [µM]
Clc1ccc(OCC2NC3C=CC32)cn1 (configuration not stated),> 100 µM (inactive),> 100 µM (inactive),> 100 µM (inactive),> 100 µM (inactive),> 100 µM (inactive),> 100 µM (inactive),50.1 µM (inactive),34.4 µM (inactive),> 100 µM (inactive),> 100 µM (inactive),24.9 µM (inactive),> 100 µM (inactive),> 100 µM (inactive),> 100 µM (inactive),> 100 µM (inactive),> 100 µM (inactive),> 100 µM (inactive),> 100 µM (inactive),> 100 µM (inactive),> 100
CC1(C)CC2C(C1=O)C1(C)CCCC2(C)C1=O (configuration not stated),> 100 µM (inactive),> 100 µM (inactive),> 100 µM (inactive),> 100 µM (inactive),> 100 µM (inactive),> 100 µM (inactive),> 100 µM (inactive),> 100 µM (inactive),> 100 µM (inactive),> 100 µM (inactive),> 100 µM (inactive),> 100 µM (inactive),> 100 µM (inactive),> 100 µM (inactive),> 100 µM (inactive),> 100 µM (inactive),> 100 µM (inactive),> 100 µM (inactive),> 100 µM (inactive),> 100
COc1ccc(C(=O)NCCN(C)C)c2nc3ccccc3cc12,1.23 µM (inactive),1.58 µM (inactive),0.729 µM (active),0.841 µM (active),0.785 µM (active),0.21 µM (active),0.596 µM (active),0.354 µM (active),1.72 µM (inactive),0.561 µM (active),1.66 µM (inactive),1.4 µM (inactive),1.85 µM (inactive),1.32 µM (inactive),0.386 µM (active),0.353 µM (active),4.68 µM (inactive),1.54 µM (inactive),0.0255 µM (active),1.35
C=C(C)COC(=O)COCC(=O)OCC(=C)C,> 100 µM (inactive),> 100 µM (inactive),> 100 µM (inactive),> 100 µM (inactive),> 100 µM (inactive),> 100 µM (inactive),> 100 µM (inactive),> 100 µM (inactive),> 100 µM (inactive),> 100 µM (inactive),> 100 µM (inactive),> 100 µM (inactive),> 100 µM (inactive),> 100 µM (inactive),> 100 µM (inactive),> 100 µM (inactive),> 100 µM (inactive),> 100 µM (inactive),> 100 µM (inactive),> 100
COC(=O)C1=C(OC(=O)/C(=C/c2ccc(Cl)cc2)c2ccc(Cl)cc2)C(C(=O)OC)[C@@]2(O)[C@@H](C(=O)OC)[C@H](C)C[C@@H]1[C@@H]2C(=O)OC (some centres not stated),> 100 µM (inactive),35 µM (inactive),> 100 µM (inactive),29 µM (inactive),> 100 µM (inactive),25.9 µM (inactive),> 61 µM (inactive),18 µM (inactive),> 100 µM (inactive),31.6 µM (inactive),10.6 µM (inactive),39.4 µM (inactive),> 100 µM (inactive),27.6 µM (inactive),> 100 µM (inactive),> 100 µM (inactive),> 56 µM (inactive),50.8 µM (inactive),14.3 µM (inactive),> 81.3
C1CSC2=C(S1)SC1=C(S2)SC(=C2SC3=C(SC4=C(SCCS4)S3)S2)S1,> 100 µM (inactive),> 100 µM (inactive),> 100 µM (inactive),> 100 µM (inactive),> 100 µM (inactive),> 100 µM (inactive),> 100 µM (inactive),> 100 µM (inactive),> 100 µM (inactive),> 100 µM (inactive),> 100 µM (inactive),> 100 µM (inactive),> 100 µM (inactive),> 100 µM (inactive),> 100 µM (inactive),> 100 µM (inactive),37.7 µM (inactive),> 100 µM (inactive),> 100 µM (inactive),> 100
C/C(=N\N)C(CN1CCCCC1)C(c1ccccc1)c1c(O)c2ccccc2oc1=O (configuration not stated),> 100 µM (inactive),> 100 µM (inactive),> 100 µM (inactive),> 87.7 µM (inactive),> 100 µM (inactive),> 100 µM (inactive),> 100 µM (inactive),> 100 µM (inactive),> 100 µM (inactive),> 100 µM (inactive),> 100 µM (inactive),> 100 µM (inactive),> 100 µM (inactive),> 100 µM (inactive),> 100 µM (inactive),> 100 µM (inactive),32.7 µM (inactive),> 100 µM (inactive),> 100 µM (inactive),> 100
c1ccc(CCCNc2nnnc3ccccc23)cc1,32.4 µM (inactive),> 100 µM (inactive),36 µM (inactive),58.2 µM (inactive),> 100 µM (inactive),85.1 µM (inactive),> 100 µM (inactive),35.8 µM (inactive),> 100 µM (inactive),> 100 µM (inactive),70.1 µM (inactive),34.8 µM (inactive),55.1 µM (inactive),> 100 µM (inactive),> 100 µM (inactive),> 100 µM (inactive),> 100 µM (inactive),38.9 µM (inactive),> 100 µM (inactive),> 100
Cc1nc(C(N)=S)sc1C(=O)CC(=O)C(=O)Nc1nc2ccccc2[nH]1,> 100 µM (inactive),> 100 µM (inactive),> 100 µM (inactive),> 100 µM (inactive),11.5 µM (inactive),> 100 µM (inactive),> 100 µM (inactive),> 100 µM (inactive),> 100 µM (inactive),> 100 µM (inactive),> 100 µM (inactive),> 100 µM (inactive),> 100 µM (inactive),> 100 µM (inactive),> 100 µM (inactive),> 100 µM (inactive),> 100 µM (inactive),> 100 µM (inactive),> 100 µM (inactive),> 100
O=C(Oc1ccccn1)c1cc2cc(CCl)ccc2oc1=O,51.8 µM (inactive),20.3 µM (inactive),27.2 µM (inactive),15.7 µM (inactive),71.1 µM (inactive),43.8 µM (inactive),76.7 µM (inactive),35.6 µM (inactive),72.1 µM (inactive),25.8 µM (inactive),36.8 µM (inactive),21.7 µM (inactive),51.3 µM (inactive),> 100 µM (inactive),25.2 µM (inactive),23.7 µM (inactive),24.8 µM (inactive),23 µM (inactive),43.7 µM (inactive),39.4
COC(=O)C1=C(O)C(C(=O)OC)[C@]2(O)[C@H](C(=O)OC)[C@H]1C[C@@H](c1cccc(OC)c1)[C@H]2C(=O)OC (some centres not stated),23.5 µM (inactive),26.1 µM (inactive),16.9 µM (inactive),24.5 µM (inactive),28.8 µM (inactive),20.4 µM (inactive),34.9 µM (inactive),19.4 µM (inactive),34 µM (inactive),22.2 µM (inactive),29.5 µM (inactive),18.7 µM (inactive),17.5 µM (inactive),39 µM (inactive),22.9 µM (inactive),31 µM (inactive),27.5 µM (inactive),29 µM (inactive),22.2 µM (inactive),26.3
COc1ccc2c3c([nH]c2c1)CCN(Cc1ccccc1)C3,17 µM (inactive),> 100 µM (inactive),31.8 µM (inactive),18.7 µM (inactive),22.3 µM (inactive),31.3 µM (inactive),27.2 µM (inactive),22.8 µM (inactive),24.4 µM (inactive),24 µM (inactive),42.8 µM (inactive),24.6 µM (inactive),23.6 µM (inactive),73.6 µM (inactive),34 µM (inactive),21.8 µM (inactive),37.3 µM (inactive),62.8 µM (inactive),17 µM (inactive),17.9
O=[N+]([O-])c1cccnc1-n1cnc2ccccc21,> 100 µM (inactive),> 100 µM (inactive),> 100 µM (inactive),> 100 µM (inactive),> 100 µM (inactive),–,> 100 µM (inactive),> 100 µM (inactive),> 100 µM (inactive),> 100 µM (inactive),> 100 µM (inactive),> 100 µM (inactive),> 100 µM (inactive),> 100 µM (inactive),–,> 100 µM (inactive),> 100 µM (inactive),> 100 µM (inactive),> 100 µM (inactive),> 100
NCCCCCCn1c(-c2ccc(Br)cc2)cs/c1=N\c1ccccc1,10.1 µM (inactive),13.9 µM (inactive),17.4 µM (inactive),9.35 µM (inactive),16.9 µM (inactive),14.6 µM (inactive),5.9 µM (inactive),3.33 µM (inactive),13.6 µM (inactive),4.09 µM (inactive),13.8 µM (inactive),13.1 µM (inactive),10.8 µM (inactive),–,13.7 µM (inactive),16.8 µM (inactive),11.9 µM (inactive),12.7 µM (inactive),13.1 µM (inactive),7.74
